Results published in doi:10.1101/2023.02.24.529844v1, “Characterization of new highly selective pyrazolo[4,3-d]pyrimidine inhibitor of CDK7” (biorxiv, 2023).
pIC50: −log10 of the molar value.

Experiments:
CK1δ = target: T1, CK1δ (Homo sapiens, UniProt P48730); assay: Eurofins kinase selectivity panel; type: biochemical; conditions: read-out: residual activity at 1 μM
T1 construct: gene CSNK1D; Eurofins Discovery kinase panel

CDK9/cyclin T = CDK9/cyclin T (Homo sapiens, UniProt P50750); assay: biochemical; parameters: radiometric kinase inhibition assay with [gamma-33P]ATP, P-81 phosphocellulose spotting, digital image analysis
CDK9/cyclin T, sequence (P50750 whole entry): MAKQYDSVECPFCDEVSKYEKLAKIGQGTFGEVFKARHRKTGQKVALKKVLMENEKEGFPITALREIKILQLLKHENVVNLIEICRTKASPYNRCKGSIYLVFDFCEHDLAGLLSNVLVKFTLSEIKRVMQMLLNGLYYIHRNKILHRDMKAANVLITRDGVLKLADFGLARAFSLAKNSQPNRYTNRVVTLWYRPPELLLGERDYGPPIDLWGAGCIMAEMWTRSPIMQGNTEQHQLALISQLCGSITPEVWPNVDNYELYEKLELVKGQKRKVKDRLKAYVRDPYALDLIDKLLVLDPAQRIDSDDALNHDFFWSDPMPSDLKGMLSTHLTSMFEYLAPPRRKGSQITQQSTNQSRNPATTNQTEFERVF
CDK9/cyclin T, sequence (O60563 whole entry partner): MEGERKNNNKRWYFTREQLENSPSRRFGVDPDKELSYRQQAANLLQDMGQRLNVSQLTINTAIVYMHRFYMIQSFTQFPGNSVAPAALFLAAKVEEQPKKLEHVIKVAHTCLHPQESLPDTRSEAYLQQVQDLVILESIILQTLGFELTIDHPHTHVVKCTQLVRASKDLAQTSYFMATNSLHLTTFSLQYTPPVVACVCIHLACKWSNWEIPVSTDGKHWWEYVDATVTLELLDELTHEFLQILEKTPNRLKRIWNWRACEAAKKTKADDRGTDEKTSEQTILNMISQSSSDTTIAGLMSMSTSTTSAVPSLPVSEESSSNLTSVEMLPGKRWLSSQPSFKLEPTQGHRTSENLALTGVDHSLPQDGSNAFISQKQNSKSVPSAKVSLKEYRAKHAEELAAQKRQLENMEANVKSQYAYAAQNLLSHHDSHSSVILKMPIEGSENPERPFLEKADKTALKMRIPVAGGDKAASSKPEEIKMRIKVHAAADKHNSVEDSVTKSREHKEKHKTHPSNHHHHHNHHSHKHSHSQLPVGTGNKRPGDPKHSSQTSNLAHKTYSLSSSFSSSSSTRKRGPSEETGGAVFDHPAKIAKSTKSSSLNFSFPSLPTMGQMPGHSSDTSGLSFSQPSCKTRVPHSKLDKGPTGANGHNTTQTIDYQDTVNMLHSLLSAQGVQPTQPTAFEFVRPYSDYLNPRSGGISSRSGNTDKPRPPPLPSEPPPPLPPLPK
Protocol: (§1) The kinase inhibition assay was performed as previously described. Briefly, all tested kinases were incubated with specific substrates in the presence of ATP, 0.05 µCi [γ^33P]ATP and the LGR6768 compound in a final volume of 10 µl. The reaction was stopped by adding 3% aq. H3PO4. Aliquots were spotted onto P-81 phosphocellulose (Whatman), washed three times with 0.5% aq. H3PO4 and air-dried. Kinase inhibition was quantified using a FLA-7000 digital image analyser (Fujifilm). The drug doses required to decrease kinase activities by 50%, represented by the IC50 values, were determined from dose[…]response curves. The selectivity profiling of LGR6768 was performed on a panel of 50 kinases, including known off-targets of other structurally related pyrazolo[4,3-d]pyrimidines or isosteres, such as roscovitine or CR8 [31]. Given the high structural similarity within the CDK family, we also evaluated LGR6768 against 14 CDKs to assess its selectivity across them. The compound was applied at a 1 µM concentration, and the experiment confirmed selective reduction of the enzymatic activity of CDK7 to 4%.

CDK4/cyclin D1 = CDK4/cyclin D1 (Homo sapiens, UniProt P11802); assay: biochemical; parameters: radiometric kinase inhibition assay with [gamma-33P]ATP, P-81 phosphocellulose spotting, digital image analysis
CDK4/cyclin D1, sequence (P11802 whole entry): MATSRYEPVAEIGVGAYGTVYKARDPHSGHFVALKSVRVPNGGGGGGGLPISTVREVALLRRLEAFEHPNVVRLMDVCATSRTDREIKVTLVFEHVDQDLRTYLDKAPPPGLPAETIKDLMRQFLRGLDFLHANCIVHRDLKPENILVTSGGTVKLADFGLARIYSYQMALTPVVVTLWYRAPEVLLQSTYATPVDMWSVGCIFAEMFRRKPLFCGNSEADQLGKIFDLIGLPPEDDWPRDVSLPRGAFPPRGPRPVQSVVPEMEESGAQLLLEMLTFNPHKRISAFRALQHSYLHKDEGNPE
CDK4/cyclin D1, sequence (P24385 whole entry partner): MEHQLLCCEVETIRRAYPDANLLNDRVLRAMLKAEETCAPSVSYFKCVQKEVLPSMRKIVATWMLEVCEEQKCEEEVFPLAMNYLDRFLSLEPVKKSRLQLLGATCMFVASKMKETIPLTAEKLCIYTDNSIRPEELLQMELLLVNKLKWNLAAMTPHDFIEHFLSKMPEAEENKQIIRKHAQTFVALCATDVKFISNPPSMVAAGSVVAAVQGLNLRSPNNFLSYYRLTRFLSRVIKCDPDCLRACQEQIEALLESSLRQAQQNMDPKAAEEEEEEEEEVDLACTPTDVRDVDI
Protocol: as §1

CDK5/p25 = CDK5/p25 (Homo sapiens, UniProt Q00535); assay: biochemical; parameters: radiometric kinase inhibition assay with [gamma-33P]ATP, P-81 phosphocellulose spotting, digital image analysis
CDK5/p25, sequence (Q00535 whole entry): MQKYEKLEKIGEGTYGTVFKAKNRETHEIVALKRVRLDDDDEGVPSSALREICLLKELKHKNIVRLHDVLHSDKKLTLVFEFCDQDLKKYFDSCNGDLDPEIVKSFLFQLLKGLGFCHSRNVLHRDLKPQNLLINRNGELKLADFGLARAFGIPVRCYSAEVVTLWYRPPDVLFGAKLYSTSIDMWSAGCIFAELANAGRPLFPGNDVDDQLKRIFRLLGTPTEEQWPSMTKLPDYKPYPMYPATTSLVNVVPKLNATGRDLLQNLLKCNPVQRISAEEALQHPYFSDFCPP
CDK5/p25, sequence (Q15078 whole entry partner): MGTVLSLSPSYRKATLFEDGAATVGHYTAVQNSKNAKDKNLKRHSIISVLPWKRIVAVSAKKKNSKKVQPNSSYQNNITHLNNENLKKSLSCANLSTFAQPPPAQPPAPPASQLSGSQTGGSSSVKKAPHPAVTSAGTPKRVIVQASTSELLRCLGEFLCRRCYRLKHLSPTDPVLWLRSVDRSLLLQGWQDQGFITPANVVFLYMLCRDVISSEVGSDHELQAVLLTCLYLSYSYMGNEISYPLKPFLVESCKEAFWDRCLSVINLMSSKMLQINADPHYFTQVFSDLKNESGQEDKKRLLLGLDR
Protocol: as §1

CDK2/cyclin E = CDK2/cyclin E (Homo sapiens, UniProt P24941); assay: biochemical; parameters: radiometric kinase inhibition assay with [gamma-33P]ATP, P-81 phosphocellulose spotting, digital image analysis
Protocol: as §1

CDK1/cyclin B = CDK1/cyclin B (Homo sapiens, UniProt P06493); assay: biochemical; parameters: radiometric kinase inhibition assay with [gamma-33P]ATP, P-81 phosphocellulose spotting, digital image analysis
CDK1/cyclin B, sequence (P06493 whole entry): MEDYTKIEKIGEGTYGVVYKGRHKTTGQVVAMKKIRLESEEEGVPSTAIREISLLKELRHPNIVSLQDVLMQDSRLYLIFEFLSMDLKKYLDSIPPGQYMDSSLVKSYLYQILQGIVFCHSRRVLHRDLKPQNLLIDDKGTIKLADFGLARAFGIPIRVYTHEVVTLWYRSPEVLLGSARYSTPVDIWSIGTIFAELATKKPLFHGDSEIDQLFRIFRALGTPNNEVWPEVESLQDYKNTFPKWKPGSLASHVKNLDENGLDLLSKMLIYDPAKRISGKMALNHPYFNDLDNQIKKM
CDK1/cyclin B, sequence (P14635 whole entry partner): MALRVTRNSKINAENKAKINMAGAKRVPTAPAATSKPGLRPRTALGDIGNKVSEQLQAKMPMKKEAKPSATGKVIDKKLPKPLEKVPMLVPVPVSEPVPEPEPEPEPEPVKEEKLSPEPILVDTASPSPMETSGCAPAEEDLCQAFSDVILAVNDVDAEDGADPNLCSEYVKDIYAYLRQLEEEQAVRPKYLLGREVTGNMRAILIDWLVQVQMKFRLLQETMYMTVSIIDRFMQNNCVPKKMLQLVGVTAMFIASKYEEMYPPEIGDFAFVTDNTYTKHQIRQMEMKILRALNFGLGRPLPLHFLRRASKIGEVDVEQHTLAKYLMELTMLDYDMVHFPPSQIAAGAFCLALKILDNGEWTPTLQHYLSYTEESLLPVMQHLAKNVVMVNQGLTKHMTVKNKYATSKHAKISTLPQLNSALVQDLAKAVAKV
Protocol: as §1

CDK2/cyclin A = CDK2/cyclin A (Homo sapiens, UniProt P24941); assay: biochemical; parameters: radiometric kinase inhibition assay with [gamma-33P]ATP, P-81 phosphocellulose spotting, digital image analysis
Protocol: as §1

CDK7 = target: T2, CDK7 (Homo sapiens, UniProt P50613); assay: [gamma-33P]ATP radiometric kinase assay; type: biochemical
T2 construct: recombinant CDK7; with Cyclin-H
T2 sequence (P50613 2-346): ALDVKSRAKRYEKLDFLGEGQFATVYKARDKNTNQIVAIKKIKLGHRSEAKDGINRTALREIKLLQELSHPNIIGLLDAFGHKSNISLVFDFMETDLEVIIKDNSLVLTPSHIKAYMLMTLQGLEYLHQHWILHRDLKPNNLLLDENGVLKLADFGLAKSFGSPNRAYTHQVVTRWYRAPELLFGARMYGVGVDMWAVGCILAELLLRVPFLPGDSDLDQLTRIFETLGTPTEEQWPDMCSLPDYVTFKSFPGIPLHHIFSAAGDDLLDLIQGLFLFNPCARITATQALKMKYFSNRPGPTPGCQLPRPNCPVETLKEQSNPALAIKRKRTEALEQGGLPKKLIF
T2 sequence (P51946 whole entry partner): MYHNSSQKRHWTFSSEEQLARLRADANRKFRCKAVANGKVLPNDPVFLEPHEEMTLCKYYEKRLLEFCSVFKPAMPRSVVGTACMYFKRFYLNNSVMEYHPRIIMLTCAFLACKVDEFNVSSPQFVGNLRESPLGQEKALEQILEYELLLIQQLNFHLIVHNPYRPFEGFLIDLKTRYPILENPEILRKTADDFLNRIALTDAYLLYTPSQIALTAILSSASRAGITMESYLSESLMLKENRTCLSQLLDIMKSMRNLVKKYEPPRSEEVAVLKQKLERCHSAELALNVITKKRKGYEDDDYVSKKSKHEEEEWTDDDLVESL
T2 sequence (P51948 whole entry partner): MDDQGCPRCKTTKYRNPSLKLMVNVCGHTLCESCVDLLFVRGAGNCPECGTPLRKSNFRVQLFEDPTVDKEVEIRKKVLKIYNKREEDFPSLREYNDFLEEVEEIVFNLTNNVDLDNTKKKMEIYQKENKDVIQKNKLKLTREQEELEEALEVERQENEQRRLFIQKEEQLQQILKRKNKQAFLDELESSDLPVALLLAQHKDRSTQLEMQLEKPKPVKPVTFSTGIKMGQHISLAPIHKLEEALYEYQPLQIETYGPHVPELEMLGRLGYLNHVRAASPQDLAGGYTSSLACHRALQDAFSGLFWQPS

CDK16 = target: T3, CDK16 (Homo sapiens, UniProt Q00536); assay: Eurofins kinase selectivity panel; type: biochemical; conditions: read-out: residual activity at 1 μM
T3 construct: Eurofins Discovery kinase panel
T3 sequence (Q00536 whole entry): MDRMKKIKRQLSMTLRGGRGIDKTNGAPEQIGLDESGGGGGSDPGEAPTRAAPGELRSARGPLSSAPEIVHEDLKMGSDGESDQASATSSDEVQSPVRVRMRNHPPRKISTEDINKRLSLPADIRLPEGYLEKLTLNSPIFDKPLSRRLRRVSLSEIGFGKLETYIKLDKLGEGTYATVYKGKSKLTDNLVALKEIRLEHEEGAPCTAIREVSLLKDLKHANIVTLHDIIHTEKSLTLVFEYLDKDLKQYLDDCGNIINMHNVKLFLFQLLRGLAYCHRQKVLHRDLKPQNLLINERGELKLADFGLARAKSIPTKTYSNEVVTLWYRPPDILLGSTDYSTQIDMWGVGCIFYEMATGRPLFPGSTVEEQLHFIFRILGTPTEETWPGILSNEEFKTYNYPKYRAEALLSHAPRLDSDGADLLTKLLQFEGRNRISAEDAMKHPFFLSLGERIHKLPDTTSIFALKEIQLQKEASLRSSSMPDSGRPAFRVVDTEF

T1 sequence (P48730 whole entry): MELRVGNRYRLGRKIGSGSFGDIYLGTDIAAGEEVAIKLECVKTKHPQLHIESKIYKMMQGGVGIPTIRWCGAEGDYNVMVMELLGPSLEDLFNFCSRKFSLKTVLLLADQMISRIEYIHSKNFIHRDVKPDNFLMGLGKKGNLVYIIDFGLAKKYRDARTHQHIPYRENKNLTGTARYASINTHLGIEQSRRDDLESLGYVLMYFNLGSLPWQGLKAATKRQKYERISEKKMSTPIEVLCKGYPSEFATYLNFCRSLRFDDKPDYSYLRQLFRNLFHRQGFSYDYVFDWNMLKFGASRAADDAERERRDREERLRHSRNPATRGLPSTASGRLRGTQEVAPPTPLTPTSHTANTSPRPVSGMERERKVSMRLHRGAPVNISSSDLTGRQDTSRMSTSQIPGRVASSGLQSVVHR

SMILES: CC(C)c1n[nH]c2c(NCc3ccccc3-c3ccccc3)nc(SC3CCNCC3)nc12 [compound 4, 5-(piperidin-4-yl)thio-3-isopropyl-7-(2-phenylbenzyl)amino-1(2)H-pyrazolo[4,3-d]pyrimidine]
- remaining activity at 1 µM (CK1δ): 19%
- pIC50 (CDK9/cyclin T): 5.18
- pIC50 (CDK4/cyclin D1): < 4.70
- pIC50 (CDK5/p25): 5.95
- pIC50 (CDK2/cyclin E): 6.60
- pIC50 (CDK1/cyclin B): 5.29
- pIC50 (CDK2/cyclin A): 6.30
- pIC50 (CDK7): 7.70
- remaining activity at 1 µM (CDK16): 19%
